For experiment [1], the target named is T1, AKT1 E17K PH domain (Homo sapiens, UniProt P31749, E17K). Briefly: Stopped-flow association and dissociation kinetics.
Experiment [2] deals with T2, AKT1 PH domain (Homo sapiens, UniProt P31749). Kind of experiment: IP6 competitive displacement assay.
For experiment [3], the target named is T1, AKT1 E17K PH domain. Briefly: IP6 competitive displacement assay. Particulars: for Ki: read-out: KI(IP6).
Experiment [4] has as its target T3, PLCδ1 PH domain (Mus musculus, UniProt Q8R3B1).
T3 sequence (Q8R3B1 12-142): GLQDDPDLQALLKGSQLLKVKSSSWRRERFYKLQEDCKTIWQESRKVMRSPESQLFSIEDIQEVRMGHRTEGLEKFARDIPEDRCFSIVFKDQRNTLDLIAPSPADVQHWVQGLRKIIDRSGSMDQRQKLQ
Briefly: IP6 competitive displacement assay.

The target in experiment [5] is Citrine-AKT1 PH (Homo sapiens, UniProt P31749). Briefly: Plasma membrane targeting in live NIH 3T3 cells. The class given is cell-based. Conditions: serum-starved NIH 3T3 cells, 10 nM PDGF 5 min, then 800 nM wortmannin 15 min.
Experiment [6] concerns the target RFP-AKT1 E17K PH (Homo sapiens, UniProt P31749, E17K). Kind of experiment: Plasma membrane targeting in live NIH 3T3 cells. The class given is cell-based. Particulars: serum starvation with inhibitor prior to imaging, data not shown.
The target in experiment [7] is T4, CFP-PLCδ1 PH (Homo sapiens, UniProt P51178).
T4 sequence (P51178 21-130 limits assumed): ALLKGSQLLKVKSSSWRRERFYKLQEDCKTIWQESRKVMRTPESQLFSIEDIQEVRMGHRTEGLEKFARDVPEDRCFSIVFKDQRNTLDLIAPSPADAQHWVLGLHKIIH
Kind of experiment: Plasma membrane targeting in live NIH 3T3 cells. The class given is cell-based. Conditions: serum starvation with inhibitor prior to imaging, data not shown.

The target in experiment [8] is T2, AKT1 PH domain. Kind of experiment: Direct IP6 titration of the free PH domain. Particulars: read-out: KD(IP6); free WT AKT1 PH domain, 25 °C, binding buffer pH 7.4.
Experiment [9] concerns the target T1, AKT1 E17K PH domain. Briefly: Direct IP6 titration of the free PH domain. The class given is binding.
The target of experiment [10] is T3, PLCδ1 PH domain. Kind of experiment: Direct IP6 titration of the free PH domain. Particulars: read-out: KD(IP6), 25 °C, binding buffer pH 7.4.

Read-outs that look alike come from different tables or passages of the source. Bounds are passed on as bounds.

By koff is commonly meant the rate constant with which the complex falls apart. Read a low koff as slow dissociation. One may read the Ki as the equilibrium dissociation constant of an inhibitor or competing ligand from its target.

T1 sequence (P31749 1-120 E17K): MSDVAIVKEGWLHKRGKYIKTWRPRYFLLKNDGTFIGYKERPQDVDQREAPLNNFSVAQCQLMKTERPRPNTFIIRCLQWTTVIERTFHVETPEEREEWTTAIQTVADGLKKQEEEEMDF
T2 sequence (P31749 1-120): as the sequence (P31749 1-120 E17K) above, with K17E counted along it
Sequence of Citrine-AKT1 PH (P31749 5-108 limits assumed): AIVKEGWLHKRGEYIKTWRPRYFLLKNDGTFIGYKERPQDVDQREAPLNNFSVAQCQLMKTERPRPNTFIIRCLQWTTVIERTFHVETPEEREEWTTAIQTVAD
Sequence of RFP-AKT1 E17K PH (P31749 5-108 E17K limits assumed): as the sequence (P31749 5-108 limits assumed) above, with E13K counted along it

Turning to “L-α-phosphatidylinositol 4,5-bisphosphate [PI(4,5)P2]”, the kon in experiment [1] (0.5 µM protein, 200 µM total lipid, 25 °C) is 1.3 ± 0.1 ×10^7 M^−1 s^−1. In [1] (dissociation with excess IP6 (40 mM), 25 °C), this compound displayed a koff of 1.5 ± 0.1 s⁻¹. The Kd was 0.12 ± 0.01 µM in experiment [1] (read-out: KD (koff/kon), calculated from the rate constants); > 10 µM in experiment [2] (read-out: KD(PIPn), WT AKT1 PH, PIP lipid embedded in synthetic plasma membrane, from KD(IP6) and KI(IP6)); 0.13 ± 0.03 µM in experiment [3] (read-out: KD(PIPn), AKT1 E17K PH, PIP lipid embedded in synthetic plasma membrane, from KD(IP6) and KI(IP6)); 0.19 ± 0.07 µM in experiment [4] (read-out: KD(PIPn), PLCδ1 PH, PIP lipid embedded in synthetic plasma membrane, from KD(IP6) and KI(IP6)). Also, in experiment [3] (PI(4,5)P2 versus IP6 and PI(3,4,5)P3), the “affinity enhancement by E17K larger than for the other two ligands” value is on record as “at least 10 fold”.

Consider `COC[C@H]1OC(=O)c2coc3c2[C@@]1(C)C1=C(C3=O)[C@@H]2CCC(=O)[C@@]2(C)C[C@H]1OC(C)=O` [wortmannin], for which the “localization of the WT AKT1 PH domain after PI3K inhibition” value in [5] was “returns to the cytoplasm”. The “constitutive plasma membrane targeting in the presence of a PI3K inhibitor” value in experiment [6] and in experiment [7] was “not disrupted” each time.

In the case of `O=P(O)(O)OC1C(OP(=O)(O)O)C(OP(=O)(O)O)C(OP(=O)(O)O)C(OP(=O)(O)O)C1OP(=O)(O)O` (stereo not drawn) [IP6, inositol 1,2,3,4,5,6-hexakisphosphate], the Kd amounted to 260 ± 50 µM in [8]; 11 ± 1 µM in experiment [9] (read-out: KD(IP6), free AKT1 E17K PH domain, 25 °C, binding buffer pH 7.4); 3 ± 0.2 µM in experiment [10]. The “additional IP6 binding free energy from the E17K mutation” value in experiment [9] (ΔΔG, E17K versus WT AKT1 PH) came out at 3.0 RT. Besides, the Ki in [2] (read-out: KI(IP6), displacement of AKT1 PH from PM(+)PI(3,4,5)P3) amounted to 28000 ± 1000 µM; in experiment [3] (displacement of AKT1 E17K PH from PM(+)PI(3,4,5)P3) it was 8000 ± 2000 µM; in experiment [3] (displacement of AKT1 E17K PH from PM(+)PI(4,5)P2), 210 ± 10 µM; in experiment [4] (read-out: KI(IP6), displacement of PLCδ1 PH from PM(+)PI(4,5)P2), 47 ± 4 µM.

The values are drawn from article PMC2919500 (Biochemistry, 2008).
